20 compounds from patent US9518026B2, “5-aminopyrazole-4-carboxamide inhibitors of CDPK1 from T. gondii and C. parvum” (UNIVERSITY OF WASHINGTON THROUGH ITS CENTER FOR …, priority 2013, dated 2016) can be followed below.

One data set has as its system C. parvum. Briefly: Inhibition of C. parvum proliferation. The conditions noted are these: Cryptosporidium parvum, read-out: Inhibit Parasite Prolif. (EC50, μM) C. parvum. In kind it is cell-based.
Another data set is described as follows: Cell toxicity in HepG2. The class given is cell-based. The conditions noted are these: human, HepG2 cells (hepatocellular carcinoma); Table 4. As for the experimental part: All compounds were assayed for inhibition of TgCDPK1 and CpCDPK1 and on the small-gatekeeper (Thr) human kinases, Src and Abl. Human cell toxicity was evaluated in two human cell lines, HepG2 (hepatocellular carcinoma) and CRL8155 (lymphoblast, spleen). hERG inhibition has been associated with long Q-T syndrome (cardiotoxicity), and the compounds were evaluated for hERG inhibitory activity.

The next data set has as its system T. gondii. Nature of the data set: Inhibition of T. gondii cell proliferation. The conditions noted are these: Toxoplasma gondii. In kind it is cell-based.
Data set [1] can be described thus: Cytotoxicity against CRL8155 cell line. The class given is cell-based. The conditions noted are these: human, CRL8155 cells (lymphoblast, spleen).
The target in the next data set is Src (Homo sapiens (Human), UniProt P12931). Briefly: biochemical.
Another data set addresses TgCDPK1 (Toxoplasma gondii, UniProt Q9BJF5). Briefly: biochemical.
Data set [2] in a line: Pharmacokinetic studies in mice. As to conditions: mouse, in vivo, 10 mg/kg.
For another data set, the target named is hERG (Homo sapiens (Human), UniProt Q12809). Nature of the data set: biochemical. In kind it is binding.
In a further data set the target is CpCDPK1 (Cryptosporidium parvum (strain Iowa II), UniProt A3FQ16). Briefly: biochemical.
The target in the next data set is Abl (Homo sapiens (Human), UniProt P00519). Nature of the data set: biochemical.
[3] abbreviates: Table 3, read-out: T. gondii EC50.
Setting [4] is: Table 3, read-out: Cytotoxicity (CRL8155) EC50.
Setting [5] is: Table 1, KinaseGlo, Syntide 2 peptide substrate, read-out: TgCDPK1 IC50.
[6] abbreviates: Table 2, read-out: Cytotoxicity (CRL8155) EC50.
The mark [7] stands for this setting: Table 4, read-out: Cell toxicity (EC50, μM) CRL 8155.
[8] abbreviates: Enzyme Inhibition (IC50, μM) SrcKD, Table 4.
Where [9] appears, read: Table 1, KinaseGlo, Syntide 2 peptide substrate, read-out: CpCDPK1 IC50.
The mark [10] stands for this setting: Table 4, read-out: Enzyme Inhibition (IC50, μM) Cp CDPK1.

Like-named read-outs stand apart in the source and are kept apart here. A value given as a limit tells only on which side of the number the result lay.

Abl, sequence (P00519 242-493): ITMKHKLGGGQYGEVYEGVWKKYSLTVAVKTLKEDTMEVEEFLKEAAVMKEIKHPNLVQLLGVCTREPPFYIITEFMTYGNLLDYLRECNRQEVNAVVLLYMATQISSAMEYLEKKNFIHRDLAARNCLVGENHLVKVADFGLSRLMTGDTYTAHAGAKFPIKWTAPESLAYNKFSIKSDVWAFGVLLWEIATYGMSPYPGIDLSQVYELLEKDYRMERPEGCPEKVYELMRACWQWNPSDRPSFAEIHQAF
Src, sequence (P12931 270-523): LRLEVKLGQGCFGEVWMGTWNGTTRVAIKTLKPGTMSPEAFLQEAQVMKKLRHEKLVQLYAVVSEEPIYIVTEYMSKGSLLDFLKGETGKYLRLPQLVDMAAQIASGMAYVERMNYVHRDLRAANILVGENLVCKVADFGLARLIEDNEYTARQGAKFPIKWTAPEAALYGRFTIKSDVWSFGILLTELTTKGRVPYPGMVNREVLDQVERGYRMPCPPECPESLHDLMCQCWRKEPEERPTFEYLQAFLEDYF
CpCDPK1, sequence (A3FQ16 1-538): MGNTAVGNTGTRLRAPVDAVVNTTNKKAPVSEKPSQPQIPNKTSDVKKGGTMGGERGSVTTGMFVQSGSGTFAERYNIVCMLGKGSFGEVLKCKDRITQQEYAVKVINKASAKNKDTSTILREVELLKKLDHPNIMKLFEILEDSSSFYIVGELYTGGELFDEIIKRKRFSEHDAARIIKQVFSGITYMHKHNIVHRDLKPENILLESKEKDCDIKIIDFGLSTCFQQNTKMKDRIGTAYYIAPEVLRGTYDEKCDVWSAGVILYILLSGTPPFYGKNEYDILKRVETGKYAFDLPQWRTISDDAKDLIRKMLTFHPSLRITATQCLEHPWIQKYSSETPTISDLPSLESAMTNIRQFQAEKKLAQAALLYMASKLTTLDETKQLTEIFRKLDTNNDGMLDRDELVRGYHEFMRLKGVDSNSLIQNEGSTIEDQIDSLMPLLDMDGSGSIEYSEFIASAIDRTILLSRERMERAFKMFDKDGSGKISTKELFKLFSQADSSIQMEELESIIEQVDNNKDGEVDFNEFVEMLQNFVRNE
TgCDPK1, sequence (Q9BJF5 1-507): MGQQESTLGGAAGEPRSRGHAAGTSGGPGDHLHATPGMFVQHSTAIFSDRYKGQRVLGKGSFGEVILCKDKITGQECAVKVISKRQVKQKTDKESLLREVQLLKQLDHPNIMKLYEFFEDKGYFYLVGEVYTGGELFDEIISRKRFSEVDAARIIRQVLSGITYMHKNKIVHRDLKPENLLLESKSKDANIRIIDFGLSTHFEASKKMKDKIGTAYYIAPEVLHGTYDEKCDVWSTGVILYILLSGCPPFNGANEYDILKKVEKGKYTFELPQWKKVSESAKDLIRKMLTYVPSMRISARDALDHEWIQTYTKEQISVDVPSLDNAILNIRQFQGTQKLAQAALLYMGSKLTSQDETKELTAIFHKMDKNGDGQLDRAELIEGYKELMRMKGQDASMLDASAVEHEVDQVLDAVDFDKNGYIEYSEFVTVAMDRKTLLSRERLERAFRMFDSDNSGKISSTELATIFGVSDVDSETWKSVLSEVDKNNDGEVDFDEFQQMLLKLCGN
hERG, sequence (Q12809 whole entry): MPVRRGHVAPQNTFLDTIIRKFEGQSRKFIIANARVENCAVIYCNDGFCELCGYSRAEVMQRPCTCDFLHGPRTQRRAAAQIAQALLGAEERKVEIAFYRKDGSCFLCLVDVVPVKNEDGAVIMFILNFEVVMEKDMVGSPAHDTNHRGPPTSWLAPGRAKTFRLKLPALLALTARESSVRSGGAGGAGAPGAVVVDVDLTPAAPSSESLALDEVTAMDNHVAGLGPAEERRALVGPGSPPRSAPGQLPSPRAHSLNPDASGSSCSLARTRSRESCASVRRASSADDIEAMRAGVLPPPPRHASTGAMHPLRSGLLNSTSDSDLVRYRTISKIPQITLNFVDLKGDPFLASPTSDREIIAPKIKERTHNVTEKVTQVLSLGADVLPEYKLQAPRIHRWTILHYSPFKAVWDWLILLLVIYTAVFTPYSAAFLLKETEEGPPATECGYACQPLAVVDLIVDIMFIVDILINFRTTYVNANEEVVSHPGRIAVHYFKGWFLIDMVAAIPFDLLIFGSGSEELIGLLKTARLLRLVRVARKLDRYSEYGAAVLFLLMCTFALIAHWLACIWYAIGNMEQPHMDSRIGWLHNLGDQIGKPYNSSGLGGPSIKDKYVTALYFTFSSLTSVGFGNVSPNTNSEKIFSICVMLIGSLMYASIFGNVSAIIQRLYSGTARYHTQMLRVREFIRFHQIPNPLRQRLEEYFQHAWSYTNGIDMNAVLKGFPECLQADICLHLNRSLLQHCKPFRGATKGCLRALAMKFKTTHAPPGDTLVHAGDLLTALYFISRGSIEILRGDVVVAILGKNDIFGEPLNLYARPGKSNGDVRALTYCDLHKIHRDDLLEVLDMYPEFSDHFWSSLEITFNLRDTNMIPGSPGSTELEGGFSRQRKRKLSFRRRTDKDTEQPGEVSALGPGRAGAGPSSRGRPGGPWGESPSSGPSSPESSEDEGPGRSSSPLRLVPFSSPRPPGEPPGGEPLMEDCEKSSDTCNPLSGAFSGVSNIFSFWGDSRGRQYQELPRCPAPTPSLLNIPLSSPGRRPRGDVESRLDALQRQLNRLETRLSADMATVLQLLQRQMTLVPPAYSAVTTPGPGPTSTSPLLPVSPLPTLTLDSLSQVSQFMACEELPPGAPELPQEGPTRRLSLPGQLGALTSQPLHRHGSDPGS

Consider `CCOc1ccc2cc(-c3nn(C(C)(C)C)c(N)c3C(N)=O)ccc2c1` [Compound 3, 5-amino-1-tert-butyl-3-(6-ethoxynaphthalen-2-yl)-1H-pyrazole-4-carboxamide], for which the EC50 is 0.05 µM in the data set on C. parvum and over 40 µM in the data set “Cell toxicity in HepG2”.
For the compound `NC(=O)c1c(-c2cnc3cc(OC4CCC4)ccc3c2)nn(C2CCC2)c1N` [Compound 1657, 5-amino-3-(7-cyclobutoxyquinolin-3-yl)-1-cyclobutyl-1H-pyrazole-4-carboxamide], the EC50 in the data set on T. gondii (setting [3]) is 0.69 µM; in [1] (setting [4]) it was over 40 µM. In addition, the 50% inhibitory concentration (IC50) against Src was over 10 µM; on TgCDPK1 (setting [5]), 0.012 µM.
In the case of `COc1ccc2cc(-c3nn(C(C)(C)C)c(N)c3C(N)=O)ccc2c1` [Compound 25, 5-amino-1-(tert-butyl)-3-(6-methoxynaphthalen-2-yl)-1H-pyrazole-4-carboxamide], the AUC in data set [2] is 5.94 µM·h. For the same compound, the Cmax in data set [2] was determined as 3.1 µM. The Tmax in data set [2] is 30 min. For the same compound, the EC50 with C. parvum was 0.1 µM; in data set [1] (setting [6]), over 40 µM; in [1] (setting [7]), over 40 µM; in the data set “Cell toxicity in HepG2”, over 40 µM. For the same compound, the IC50 against hERG was over 10000 nM.
In the case of `COc1ccc2cc(-c3nn(C(C)(C)C)c(N)c3C(N)=O)cnc2c1` [Compound 1543, 5-amino-1-tert-butyl-3-(7-methoxyquinolin-3-yl)-1H-pyrazole-4-carboxamide], the EC50 (in data set [1] (setting [4]); in [1] (setting [7]); in the data set “Cell toxicity in HepG2”) was over 40 µM each time. Further, the IC50 on Src (setting [8]) was over 10 µM; at Src (Src IC50 (μM), Table 3) it was over 30 µM; at CpCDPK1 (setting [9]), 0.003 µM; on CpCDPK1 (setting [10]), 0.003 µM; on Abl, over 10000 nM.
For the compound `CCOc1ccc2cc(-c3nn(C4CCCCC4)c(N)c3C(N)=O)ccc2n1` [Compound 1633, 5-amino-1-cyclohexyl-3-(2-ethoxyquinolin-6-yl)-1H-pyrazole-4-carboxamide], in [1] (setting [4]), the EC50 is over 40 µM. The IC50 is over 10 µM at Src (Src IC50 (μM), Table 3); 0.004 µM at TgCDPK1 (setting [5]); 0.002 µM at CpCDPK1 (setting [9]).
Turning to `CC(C)(CO)Cn1nc(-c2cnc3cc(OC4CCC4)ccc3c2)c(C(N)=O)c1N` [Compound 1644, 5-amino-3-(7-cyclobutoxyquinolin-3-yl)-1-(3-hydroxy-2,2-dimethylpropyl)-1H-pyrazole-4-carboxamide], the EC50 was 0.77 µM in the data set on T. gondii (setting [3]) and over 40 µM in [1] (setting [4]). The results for the IC50 at Src, on TgCDPK1 (setting [5]) and at CpCDPK1 (setting [9]) were over 10 µM, 0.012 µM and 0.005 µM, respectively.
For `NC(=O)c1c(-c2cnc3cc(OC4CCC4)ccc3c2)nn(C2CCCCC2)c1N` [Compound 1647, 5-amino-3-(7-cyclobutoxyquinolin-3-yl)-1-cyclohexyl-1H-pyrazole-4-carboxamide] the same measures were 1.14 µM, over 40 µM, over 10 µM, 0.019 µM and 0.008 µM.
For `NC(=O)c1c(-c2ccc3nc(OC4CCC4)ccc3c2)nn(C2CCC2)c1N` [Compound 1656, 5-amino-3-(2-cyclobutoxyquinolin-6-yl)-1-cyclobutyl-1H-pyrazole-4-carboxamide], the concentration for a half-maximal effect (EC50) with T. gondii (setting [3]) is 0.069 µM; in data set [1] (setting [4]), over 40 µM. For the same compound, the IC50 on Src is over 10 µM; on TgCDPK1 (setting [5]), 0.007 µM.
As to `CCOc1ccc2cc(-c3nn(C4CCCCC4)c(N)c3C(N)=O)cnc2c1` [Compound 1571, 5-amino-1-cyclohexyl-3-(7-ethoxyquinolin-3-yl)-1H-pyrazole-4-carboxamide], the concentration giving a half-maximal response (EC50) (in [1] (setting [7]); in “Cell toxicity in HepG2”) was over 40 µM throughout. Also, the IC50 was 10 µM against Src (setting [8]); over 10 µM against Src (Src IC50 (μM), Table 3); 0.005 µM on CpCDPK1 (setting [9]); over 10000 nM against Abl.
Consider `CC(C)(C)n1nc(-c2ccc3nc(OC4CCC4)ccc3c2)c(C(N)=O)c1N` [Compound 1639, 5-amino-1-(tert-butyl)-3-(2-cyclobutoxyquinolin-6-yl)-1H-pyrazole-4-carboxamide], for which, in data set [1] (setting [4]), the EC50 is over 40 µM. Moreover, the IC50 at Src (Src IC50 (μM), Table 3) is over 10 µM; at TgCDPK1 (setting [5]), 0.005 µM; on CpCDPK1 (setting [9]) it was 0.006 µM.
For `CCOc1ccc2cc(-c3nn(C(C)C)c(N)c3C(N)=O)cnc2c1` [Compound 1572, 5-amino-3-(7-ethoxyquinolin-3-yl)-1-isopropyl-1H-pyrazole-4-carboxamide], the EC50 (in data set [1] (setting [7]); in “Cell toxicity in HepG2”) was over 40 µM throughout. Also, the IC50 on CpCDPK1 (setting [9]) came out at 0.005 µM.
As to `CC(C)(C)n1nc(-c2ccc3nc(OC4CC4)ccc3c2)c(C(N)=O)c1N` [Compound 1643, 5-amino-1-(tert-butyl)-3-(2-cyclopropoxyquinolin-6-yl)-1H-pyrazole-4-carboxamide], the EC50 in [1] (setting [4]) is over 40 µM. Also, the IC50 at Src (Src IC50 (μM), Table 3) was over 10 µM; on TgCDPK1 (setting [5]) it was 0.0057 µM; at CpCDPK1 (setting [9]) it was 0.003 µM.
In the case of `NC(=O)c1c(-c2cnc3cc(OC4CCC4)ccc3c2)nn(C2CCCC2)c1N` [Compound 1658, 5-amino-3-(7-cyclobutoxyquinolin-3-yl)-1-cyclopentyl-1H-pyrazole-4-carboxamide], the EC50 is 0.4 µM in the data set with T. gondii (setting [3]) and over 40 µM in data set [1] (setting [4]). In addition, the IC50 against Src was over 10 µM; on TgCDPK1 (setting [5]), 0.012 µM; at CpCDPK1 (setting [9]), 0.004 µM.
For `CCCOc1ccc2cc(-c3nn(C(C)(C)C)c(N)c3C(N)=O)cnc2c1` [Compound 1566, 5-amino-1-tert-butyl-3-(7-propoxyquinolin-3-yl)-1H-pyrazole-4-carboxamide], the EC50 in [1] (setting [4]) was over 40 µM; in data set [1] (setting [7]), 16 µM; in the data set “Cell toxicity in HepG2”, over 40 µM. Moreover, the IC50 at Src (setting [8]) was over 10 µM; against Src (Src IC50 (μM), Table 3) it was over 10 µM; against Abl it was over 10000 nM.
For `CCCOc1ccc2cc(-c3nn(C(C)(C)C)c(N)c3C(N)=O)ccc2c1` [Compound 26, 5-amino-1-(tert-butyl)-3-(6-propoxynaphthalen-2-yl)-1H-pyrazole-4-carboxamide], the EC50 in the data set with T. gondii (Table 4, read-out: Inhibit Parasite Prolif. (EC50, μM) T. gondii) was 0.37 µM; in data set [1] (setting [7]), 38 µM; in “Cell toxicity in HepG2”, over 40 µM. For the same compound, the IC50 on Src was 7.8 µM; on TgCDPK1 (read-out: Enzyme Inhibition (IC50, μM) Tg CDPK1), 0.007 µM; on TgCDPK1 (read-out: TgCDPK1 IC50), 0.007 µM; at CpCDPK1 (setting [9]), 0.01 µM; on CpCDPK1 (setting [10]) it was 0.01 µM; on Abl, over 10000 nM.
For `NC(=O)c1c(-c2ccc3nc(OC4CCC4)ccc3c2)nn(C2CCCC2)c1N` [Compound 1653, 5-amino-3-(2-cyclobutoxyquinolin-6-yl)-1-cyclopentyl-1H-pyrazole-4-carboxamide], the concentration for a half-maximal effect (EC50) in the data set on T. gondii (setting [3]) was 0.21 µM; in data set [1] (setting [4]), over 40 µM. Further, the IC50 on Src is over 10 µM; on TgCDPK1 (setting [5]), 0.012 µM; on CpCDPK1 (setting [9]), 0.006 µM.
Turning to `NC(=O)c1c(-c2ccc3nc(OC4CCC4)ccc3c2)nn(C2CCCCC2)c1N` [Compound 1646, 5-amino-3-(2-cyclobutoxyquinolin-6-yl)-1-cyclohexyl-1H-pyrazole-4-carboxamide], the figures for the EC50 (in the data set with T. gondii (setting [3]); in data set [1] (setting [4])) were 0.31 µM and over 40 µM, respectively. For the same compound, the IC50 is over 10 µM on Src, 0.016 µM on TgCDPK1 (setting [5]) and 0.013 µM on CpCDPK1 (setting [9]).
In the case of `CC(C)(C)n1nc(-c2cnc3ccccc3c2)c(C(N)=O)c1N` [Compound 38, 5-amino-1-(tert-butyl)-3-(quinolin-3-yl)-1H-pyrazole-4-carboxamide], the concentration for a half-maximal effect (EC50) in data set [1] (setting [6]) was over 40 µM. Besides, the IC50 at Src (Src IC50 (μM), Table 2) was over 10 µM; on TgCDPK1 (read-out: TgCDPK1 IC50) it was 0.006 µM; at CpCDPK1 (setting [9]), 0.007 µM.
Take `CC(C)(CO)Cn1nc(-c2ccc3nc(OC4CCC4)ccc3c2)c(C(N)=O)c1N` [Compound 1645, 5-amino-3-(2-cyclobutoxyquinolin-6-yl)-1-(3-hydroxy-2,2-dimethylpropyl)-1H-pyrazole-4-carboxamide]: the EC50 with T. gondii (setting [3]) is 0.48 µM; in data set [1] (setting [4]), over 40 µM. Moreover, the 50% inhibitory concentration (IC50) is over 10 µM on Src (Src IC50 (μM), Table 3) and 0.005 µM at CpCDPK1 (setting [9]).
As to `CCOc1ccc2cc(-c3nn(CC4CC4)c(N)c3C(N)=O)ccc2n1` [Compound 1635, 5-amino-1-(cyclopropylmethyl)-3-(2-ethoxyquinolin-6-yl)-1H-pyrazole-4-carboxamide], the EC50 in [1] (setting [4]) was over 40 µM. The IC50 is over 10 µM against Src (Src IC50 (μM), Table 3); 0.006 µM at TgCDPK1 (setting [5]); 0.003 µM on CpCDPK1 (setting [9]).

A word on the EC50: it is the concentration giving half of the maximal effect. Broadly, the IC50 is the midpoint of a concentration-inhibition curve. One may read the AUC as concentration integrated over time. A low value points to less exposure. Broadly, the Cmax is the maximum level reached in the sampled fluid or tissue. The term Tmax denotes the time from dosing to the highest level.
